The test system of test [1] is CD44^hiCD24^lo CSCs in MDA-MB-231 cells. As to the kind of experiment: FACS analysis of CD44^hiCD24^lo cancer stem cells in MDA-MB-231 cells treated with P1 analogues. It counts as cell-based, human. Conditions: 50 μM peptide, 48 hours; for CD44^hiCD24^lo CSCs (%) / COI, Live Single CD44^hiCD24^lo CSCs (Cell Count): n = 1; for Average Inhibition of CSCs (%) / CD44^hiCD24^lo CSCs (%) Repeat 1 / CD44^hiCD24^lo CSCs (%) Repeat 2 / CD44^hiCD24^lo CSCs (%) Repeat 3: n = 3. How it is done: Analogues of P1 (Table 6) were designed and synthesized in accordance with the procedure of Example 5. The ability of these analogues to inhibit cancer stem cells was determined using FACS analysis on MDA-MB-231 cells, which constitutively contain approximately 90% CD44^hiCD24^lo cancer stem cells, treated with the peptides.
Non-adherent cells were removed during the washing steps.
(A flow cytometer gives signals particle by particle.)

The next test has as its system MCF7 cells. Conditions: MCF7 cells, 50 μM peptide, 48 hours. How it is done:
(§1) P1 Analogues were synthesized in accordance with the procedure of Example 5. 4×10^4 MDA-MB-231 cells or 1×10^4 induced or non-induced MCF7 cells were seeded in a 12 well plate with 1 mL complete media overnight. Induced MCF7 cells were prepared by stimulating cells with PMA/TGF-β and incubating for 12 hours. Cells were treated with 50 μM test peptide (dissolved in water) for 48 hours. Cells were then washed twice with 1 mL PBS and harvested by trypsinisation. Non-adherent cells were removed during the washing steps. Adherent cells were collected, and were subsequently stained with anti-human CD44, CD24 and Hoechst 33342 antibodies on ice for 30 mins. FACS was performed on BD FACS LSRII to measure the percentage of CD44^hiCD24^lo CSCs by dividing CD44^hiCD24^lo events by total live cell counts (Hoechst negative population) (as described in Fillmore and Kuperwasser (2007) Breast Cancer Res, 9: 303). The percentage of viable cells was calculated by dividing total live cell events by total single cells as described previously (Siemann and Keng (1986), Cancer Res, 46: 3556-3559).

Another test relates to induced MCF7 cells. As to the kind of experiment: FACS CSC inhibition in induced MCF7 cells. It counts as cell-based, human. The following applies: induced MCF7 cells (PMA/TGF-β), 50 μM peptide, 48 hours. As for the experimental part:
as §1

Another test concerns MDA-MB-231 cells. As to the kind of experiment: FACS analysis of the cancer stem cell phenotype (CD44^high/CD24^low) in response to P1, P2 and P3. Type of test: cell-based, human. Conditions: 6.25-400 μM, 72 hours. How it is done:
5×10^4 MDA-MB-231 cells were seeded with 1 mL of complete DMEM in 12 well plates overnight. […] Samples were harvested by trypsinization followed by washing with DPBS containing 2% HI-FBS. FACS staining was performed using anti-human CD44-APC, anti-human CD24-PE, Hoechst and anti-human EpCAM antibody cocktails. Data was collected from a BD-FACSLSR-II flow cytometer. Treestar FlowJo was used for data analysis.

Test [2] relates to PD-L1. Kind of test: Immunofluorescence (confocal) of PD-L1 in MDA-MB-231 cells, Example 6. Type of test: cell-based, human. Conditions: 50 μM, 72 hours. How it is done:
(§2) Confocal laser scanning microscopy was employed to investigate the effect of P1, P2 and P3 (synthesized in accordance with Example 5) on the nuclear expression of PD-L1 and acetylated PD-L1 (PDL1-Ac) (FIG. 9).
(§3) 1×10^4 MDA-MB-231 cells were seeded onto coverslips in 12 well plates with DMEM media overnight. Cells were treated with 50 μM P1, P2, P3 or P4 or vehicle (water) for 72 hours. Treated cells were fixed with 3.7% formaldehyde, and then permeabilised by incubating with 1% Triton X-100 for 20 min. Cells were then probed with a rabbit anti-PD-L1 antibody (Santa Cruz Biotechnology) or rabbit anti-acetylated PD-L1 (generated as described above) and visualized with a donkey anti-rabbit AF 488. Cover slips were mounted on glass microscope slides with ProLong Diamond Antifade reagent (Life Technologies). Protein targets were localized using confocal laser scanning microscopy. Single 0.5 μm sections were obtained using a Leica DMI8 microscope using 100× oil immersion lens running LAX software. The final image was obtained by averaging four sequential images of the same section. Digital images were analyzed using ImageJ software as described above.

For test [3], the system named is PD-L1 acetylated at lysine 263. Kind of test: Immunofluorescence (confocal) of acetylated PD-L1 in MDA-MB-231 cells, Example 6. Conditions: 50 μM, 72 hours. It counts as cell-based, human. As for the experimental part: as §2, §3
Test [4] deals with cell surface vimentin (CSV). As to the kind of experiment: Immunofluorescence of CSV in MDA-MB-231 cells, Example 9. Type of test: cell-based, human. Conditions: 50 μM, 72 hours. How it is done: 1×10^4 MDA-MB-231 cells were seeded onto coverslips in 12 well plates with DMEM media. Cells were treated with 50 μM P1, P2, P3 or P4 (synthesized in accordance with Example 5) or vehicle (water) for 72 hours. Cells were fixed with 3.7% formaldehyde and permeabilized with 2% Triton-X-100, then probed with primary mouse antibodies to CSV, DMNT1, H3K9me3 or 5-methylcytosine; primary goat antibodies to SNAI1, SETDB1 or ABCB5; or primary rabbit antibodies to PD-L1, EGFR, EHMT2; followed by the corresponding secondary antibody conjugated to anti-mouse Alexa-Fluor 568, anti-goat Alexa-Fluor 633 or anti-rabbit Alexa-Fluor 488. Confocal laser scanning microscopy was used to measure the TFI, TNFI and TCFI as described above. At least 20 individual cells were analyzed per sample.

In a further test the target is T1, p300 (Homo sapiens, UniProt Q09472).
T1 construct: endogenous in cells; host or cells: MDA-MB-231
Kind of test: Immunofluorescence of p300 localization in MDA-MB-231 cells. It counts as cell-based. The following applies: 50 μM. As for the experimental part:
The effect of P1, P2, P3 and P4 (synthesized in accordance with Example 5) on p300 localization was examined using confocal laser scanning microscopy. […] Cover slips were mounted on glass microscope slides with ProLong Diamond Antifade reagent (Life Technologies). Protein targets were localized by confocal laser scanning microscopy as described above. TNFI and PCC(r) were calculated using ImageJ software as previously described.

A further test concerns PD-L2. Kind of test: Immunofluorescence of PD-L2 in MDA-MB-231 cells. The following applies: 50 μM, 72 hours, relative to the control. Type of test: cell-based, human. As for the experimental part: (§4) 1×10^4 MDA-MB-231 cells were treated with 50 μM P1, P2, P3 (synthesized in accordance with Example 5) or vehicle (water) for 72 hours. Cells were fixed with 3.7% formaldehyde and permeabilized with 2% Triton-X-100, then probed with a primary rabbit antibody to PD-L2, primary goat antibody to PD-L1 and primary mouse antibody to CSV, followed by the corresponding secondary antibody conjugated to anti-mouse Alexa-Fluor 568, anti-goat Alexa-Fluor 633 or anti-rabbit Alexa-Fluor 488. Confocal laser scanning microscopy was used to measure the TNFI and TCFI as described above. At least 20 individual cells were analyzed per sample.

Test [5] concerns PD-L1. As to the kind of experiment: Immunofluorescence of PD-L1 in MDA-MB-231 cells, Example 14. Type of test: cell-based, human. Conditions: 50 μM, 72 hours. As for the experimental part: as §4

Where a SMILES comes first, the peptide text is derived from it. The star is where a group is joined. Myristoyl = CCCCCCCCCCCCCC(=O)*

T1 sequence (Q09472 whole entry): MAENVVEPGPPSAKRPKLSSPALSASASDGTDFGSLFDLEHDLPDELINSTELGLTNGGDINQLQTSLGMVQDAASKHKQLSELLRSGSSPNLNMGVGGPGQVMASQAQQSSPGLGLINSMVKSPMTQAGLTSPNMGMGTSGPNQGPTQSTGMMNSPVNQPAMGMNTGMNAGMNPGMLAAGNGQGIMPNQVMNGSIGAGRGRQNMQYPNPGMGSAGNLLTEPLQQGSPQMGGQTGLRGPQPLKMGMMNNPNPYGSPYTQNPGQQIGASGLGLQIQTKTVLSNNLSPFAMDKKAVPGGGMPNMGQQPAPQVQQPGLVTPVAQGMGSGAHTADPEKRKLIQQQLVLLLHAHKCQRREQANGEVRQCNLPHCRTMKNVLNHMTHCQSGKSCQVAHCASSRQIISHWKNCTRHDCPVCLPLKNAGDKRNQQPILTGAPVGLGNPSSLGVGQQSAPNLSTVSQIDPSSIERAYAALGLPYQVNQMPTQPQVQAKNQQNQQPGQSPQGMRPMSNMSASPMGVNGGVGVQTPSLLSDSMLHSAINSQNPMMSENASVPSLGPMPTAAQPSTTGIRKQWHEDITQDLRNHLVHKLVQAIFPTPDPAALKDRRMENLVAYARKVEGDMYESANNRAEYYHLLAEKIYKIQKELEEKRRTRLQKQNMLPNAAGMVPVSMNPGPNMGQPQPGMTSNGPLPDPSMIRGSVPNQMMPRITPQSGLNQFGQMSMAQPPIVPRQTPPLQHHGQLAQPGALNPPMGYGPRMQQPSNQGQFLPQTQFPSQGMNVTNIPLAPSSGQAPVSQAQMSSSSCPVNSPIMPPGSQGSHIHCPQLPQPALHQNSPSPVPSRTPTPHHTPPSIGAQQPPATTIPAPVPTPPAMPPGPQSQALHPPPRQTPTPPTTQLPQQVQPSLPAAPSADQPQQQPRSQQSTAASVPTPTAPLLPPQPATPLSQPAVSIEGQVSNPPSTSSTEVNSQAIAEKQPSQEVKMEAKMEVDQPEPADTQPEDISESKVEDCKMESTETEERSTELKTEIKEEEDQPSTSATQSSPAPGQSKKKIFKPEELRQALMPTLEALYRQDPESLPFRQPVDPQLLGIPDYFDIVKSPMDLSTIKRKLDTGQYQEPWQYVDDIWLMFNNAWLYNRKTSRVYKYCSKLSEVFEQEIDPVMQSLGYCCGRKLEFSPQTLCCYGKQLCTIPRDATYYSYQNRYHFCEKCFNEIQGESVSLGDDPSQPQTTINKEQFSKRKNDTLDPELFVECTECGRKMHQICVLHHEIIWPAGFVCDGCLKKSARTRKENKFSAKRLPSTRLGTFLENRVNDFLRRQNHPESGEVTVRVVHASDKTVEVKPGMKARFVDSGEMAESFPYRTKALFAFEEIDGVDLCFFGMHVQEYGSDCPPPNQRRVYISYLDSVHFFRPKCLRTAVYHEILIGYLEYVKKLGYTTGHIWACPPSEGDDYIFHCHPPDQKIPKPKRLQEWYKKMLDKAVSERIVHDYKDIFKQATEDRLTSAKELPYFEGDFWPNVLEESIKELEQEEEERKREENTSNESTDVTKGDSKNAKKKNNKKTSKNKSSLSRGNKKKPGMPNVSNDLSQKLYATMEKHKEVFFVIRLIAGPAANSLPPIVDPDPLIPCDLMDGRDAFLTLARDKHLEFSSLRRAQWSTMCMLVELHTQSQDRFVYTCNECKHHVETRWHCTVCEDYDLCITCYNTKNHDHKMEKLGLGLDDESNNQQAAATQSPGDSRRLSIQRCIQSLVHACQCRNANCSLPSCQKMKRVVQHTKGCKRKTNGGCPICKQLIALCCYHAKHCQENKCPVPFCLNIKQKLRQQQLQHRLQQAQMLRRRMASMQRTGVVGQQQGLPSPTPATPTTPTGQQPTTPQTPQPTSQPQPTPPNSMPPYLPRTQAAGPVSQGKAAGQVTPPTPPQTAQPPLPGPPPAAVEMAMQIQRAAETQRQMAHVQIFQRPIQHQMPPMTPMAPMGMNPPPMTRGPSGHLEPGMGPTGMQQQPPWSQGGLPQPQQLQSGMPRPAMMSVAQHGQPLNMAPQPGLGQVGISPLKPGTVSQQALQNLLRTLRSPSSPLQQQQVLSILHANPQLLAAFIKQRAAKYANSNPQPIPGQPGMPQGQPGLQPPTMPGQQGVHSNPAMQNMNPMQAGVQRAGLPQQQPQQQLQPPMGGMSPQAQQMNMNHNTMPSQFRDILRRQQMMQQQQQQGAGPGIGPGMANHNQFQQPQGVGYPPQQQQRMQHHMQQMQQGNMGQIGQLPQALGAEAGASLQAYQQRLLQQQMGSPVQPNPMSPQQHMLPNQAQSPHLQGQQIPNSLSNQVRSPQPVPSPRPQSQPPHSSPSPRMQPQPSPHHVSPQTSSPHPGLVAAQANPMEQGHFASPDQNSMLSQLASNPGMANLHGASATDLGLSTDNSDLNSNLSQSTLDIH

Turning to `CCCCCCCCCCCCCC(=O)N[C@@H](CC(C)C)C(=O)N[C@H](C(=O)N[C@@H](Cc1ccccc1)C(=O)N[C@H](C(=O)N[C@@H](Cc1ccccc1)C(=O)N[C@@H](CCCNC(=N)N)C(=O)N[C@@H](CC(C)C)C(=O)N[C@@H](CCCNC(=N)N)C(=O)N[C@@H](CCCCN)C(=O)NCC(=O)N[C@@H](CCCNC(=N)N)C(=O)N[C@@H](CCSC)C(=O)N[C@@H](CCSC)C(=O)N[C@@H](CC(=O)O)C(=O)N[C@H](C(=O)N[C@@H](CCCCN)C(=O)N[C@@H](CCCCN)C(N)=O)C(C)C)[C@@H](C)CC)[C@@H](C)O` [Peptide P1, Myristoyl-LTFIFRLRKGRMMDVKK-NH2] (Myristoyl-LTFIFRLRKGRMMDVKK-NH2), in test [1], the “Inhibition of CSCs (%) Repeat 1” value is 93.33%, the “Inhibition of CSCs (%) Repeat 2” value is recorded as 89.97%, the “Inhibition of CSCs (%) Repeat 3” value was 90.28% and the “CD44^hiCD24^lo CSCs (%)” value was 15.77%. Also, in test [1], the “COI, Live Single CD44^hiCD24^lo CSCs (Cell Count)” value was 220; the “Average Inhibition of CSCs (%)” value came out at 91.19%; the “CD44^hiCD24^lo CSCs (%) Repeat 1” value turned out to be 5.98%; the “CD44^hiCD24^lo CSCs (%) Repeat 2” value is given as 9.00%. Besides, in test [1], the “CD44^hiCD24^lo CSCs (%) Repeat 3” value stood at 8.72%. Besides, in the test on MCF7 cells, the “% Viable Cells” value was 95.65%, the “COI Count” value amounted to 6567, the “COI/Single Cell Count” value is 5585 and the “COI/Single Cells/Live Count” value is recorded as 5342. The “Total Count” value in the test on MCF7 cells was 10000. In addition, the “CSC inhibition (%)” value in the test with induced MCF7 cells came to 38.10%. Also, the “cancer stem cell phenotype (CD44^high/CD24^low)” value in the test with MDA-MB-231 cells is given as “significantly inhibited”. The “nuclear expression of PD-L1” value in the test on PD-L1 [2] is recorded as “inhibited”. Moreover, in test [3], the “Fn/c of acetylated PD-L1” value was “significantly reduced” and the “total nuclear fluorescence intensity (TNFI) of acetylated PD-L1” value was “significantly reduced”. Further, the “expression of CSV” value in test [4] is given as “uniformly inhibited”. Also, the p300 nuclear expression entry on p300 is “significantly decreased”. The PD-L2 nuclear localization result with PD-L2 was “significantly inhibited”. The “nuclear localization of PD-L1” value in the test with PD-L1 [5] is “significantly inhibited”.
Turning to `CCCCCCCCCCCCCC(=O)N[C@@H](CC(C)C)C(=O)N[C@H](C(=O)N[C@@H](Cc1ccccc1)C(=O)N[C@H](C(=O)N[C@@H](Cc1ccccc1)C(=O)N[C@@H](CCCNC(=N)N)C(=O)N[C@@H](CC(C)C)C(=O)N[C@@H](CCCNC(=N)N)C(=O)N[C@@H](CCC(N)=O)C(=O)NCC(=O)N[C@@H](CCCNC(=N)N)C(=O)N[C@@H](CCSC)C(=O)N[C@@H](CCSC)C(=O)N[C@@H](CC(=O)O)C(=O)N[C@H](C(=O)N[C@@H](CCCCN)C(=O)N[C@@H](CCCCN)C(N)=O)C(C)C)[C@@H](C)CC)[C@@H](C)O` [Peptide P2, Myristoyl-LTFIFRLRQGRMMDVKK-NH2] (Myristoyl-LTFIFRLRQGRMMDVKK-NH2), in test [1], the “Inhibition of CSCs (%) Repeat 1” value was 79.10%, the “Inhibition of CSCs (%) Repeat 2” value is 82.65%, the “Inhibition of CSCs (%) Repeat 3” value is on record as 85.94% and the “CD44^hiCD24^lo CSCs (%)” value is recorded as 13.99%. In addition, in test [1], the “COI, Live Single CD44^hiCD24^lo CSCs (Cell Count)” value was 616; the “Average Inhibition of CSCs (%)” value turned out to be 82.56%; the “CD44^hiCD24^lo CSCs (%) Repeat 1” value came to 18.73%; the “CD44^hiCD24^lo CSCs (%) Repeat 2” value is given as 15.56%. Besides, in test [1], the “CD44^hiCD24^lo CSCs (%) Repeat 3” value is recorded as 12.62%. Moreover, in the test on MCF7 cells, the “% Viable Cells” value amounted to 97.19%, the “COI Count” value is given as 5603, the “COI/Single Cell Count” value is 4482 and the “COI/Single Cells/Live Count” value is given as 4356. The “Total Count” value in the test with MCF7 cells was 10000. In addition, the “CSC inhibition (%)” value in the test on induced MCF7 cells is recorded as 59.93%. In addition, the “cancer stem cell phenotype (CD44^high/CD24^low)” value in the test on MDA-MB-231 cells is “significantly inhibited”. Also, the “nuclear expression of PD-L1” value in the test on PD-L1 [2] is on record as “inhibited”. Further, in [3], the “Fn/c of acetylated PD-L1” value is “significantly reduced” and the “total nuclear fluorescence intensity (TNFI) of acetylated PD-L1” value is reported as “significantly reduced”. Moreover, the “expression of CSV” value in test [4] is on record as “uniformly inhibited”. The p300 nuclear expression entry on p300 is given as “significantly decreased”. Further, the PD-L2 nuclear localization result in the test on PD-L2 is “significantly inhibited”. The “nuclear localization of PD-L1” value in the test with PD-L1 [5] is on record as “significantly inhibited”.
